Laboratory results from patent publication US7718808B2, “Thiazole derivatives” (Kyowa Hakko Kirin Co., Ltd., priority 2003, dated 2010).

Key:
[1] = tested on: MPTP-treated common marmoset; assay: Effect in Parkinson's disease model (MPTP-treated common marmoset), motor disability score; format: in vivo; conditions: oral administration, 10 mg/kg; MPTP-treated common marmosets; scored at 30 minute intervals for 8 hours
Text: Parkinson's disease is a disorder based on the degeneration and lack of dopaminergic neurons in the nigro-striatal pathway. In the primates, treatment with a dopamine neurotoxin, that is MPTP, causes selective degeneration and lack of the dopaminergic neurons in the nigro-striatal pathway and causes a symptom such as akinesia and muscular rigidity. The MPTP-treated primate is known as a Parkinson's disease model (Proceedings of the National Academy of Science USA, Vol. 80, p. 4546, 1983). Also, common marmoset belongs to Anthropoidea, and is known to have parkinsonism caused by MPTP like others of Anthropoidea (Neuroscience Letter, Vol. 57, p. 37, 1985).
The experiment was carried out using four male and female common marmosets of 2 or 3 years old (body weight, 300 to 375 g, by Nippon Clea) per group. […] The motor disability of the animals before the administration of the test compound was scored, and this was compared with the motor disability score after orally administration of the test compound (Compound 1) in a dose of 10 mg/kg. As, the parkinsonian symptoms, the motor disabilities were scored at intervals of 30 minutes for 8 hours, by observation through a one-way viewing window. The spontaneous locomotor activity was measured at intervals of 30 minutes for 12 hours by a computer-controlled automatic measuring apparatus. […]

[2] = target: T1, Rat Adenosine A2A Receptor (Rattus norvegicus, UniProt P30543); assay: Adenosine A2A receptor binding test (3H-CGS21680 binding, rat corpus striatum); conditions: test compound 10^−7 mol/L, 25° C., 120 minutes, read-out: Rat Adenosine A2A Receptor Binding Inhibition rate (%) (10^−7 mol/L)
T1 construct: tissue Nippon SLC (animals); host or cells: rat (SD) corpus striatum membrane homogenate
T1 sequence (P30543 whole entry): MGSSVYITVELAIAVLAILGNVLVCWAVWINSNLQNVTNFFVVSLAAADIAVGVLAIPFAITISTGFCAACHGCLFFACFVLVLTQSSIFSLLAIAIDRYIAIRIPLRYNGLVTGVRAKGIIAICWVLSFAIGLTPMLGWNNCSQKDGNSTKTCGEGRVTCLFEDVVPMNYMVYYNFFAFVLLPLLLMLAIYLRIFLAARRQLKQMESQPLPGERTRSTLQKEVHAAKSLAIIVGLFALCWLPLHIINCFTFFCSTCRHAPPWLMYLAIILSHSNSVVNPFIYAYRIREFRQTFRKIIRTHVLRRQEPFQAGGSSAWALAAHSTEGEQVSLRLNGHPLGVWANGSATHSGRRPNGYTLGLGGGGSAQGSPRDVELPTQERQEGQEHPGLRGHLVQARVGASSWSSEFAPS
Procedure: This test was carried but in a similar manner to a Bruns et al's method (Molecular Pharmacology, Vol. 29, p. 331, 1986).
Corpus striatum of rats (SD rat, by Nippon SLC) was suspended in 50 mL of an ice-cooled 50 mmol/L tris(hydroxymethyl)aminomethane hydrochloride (Tris-HCl) buffer (pH 7.7) using a polytron homogenizer (by Kinematica). The resulting homogenate was centrifuged (48,000×g, 20 minutes), and the resulting precipitate was again suspended by adding the same amount of a 50 mmol/L Tris-HCl buffer, followed by centrifugation under the same condition. The resulting final precipitate was suspended by adding a 50 mmol/L Tris-HCl buffer [containing 10 mmol/L magnesium chloride, adenosine deaminase 0.02 units/mg tissue (by Sigma)] so that the tissue concentration was 5 mg (wet weight)/mL.
To 100 μL of the above purified tissue suspension, were added 80 μL (final concentration […]) of tritium-labeled CGS-21680 {^3H-2-[p-(2-carboxyethyl)phenethylamino]-5′-(N-ethylcarboxamido)-adenosine: 40 curies/mmol; by New England Nuclear [The Journal of Pharmacology and Experimental Therapeutics, Vol. 251, p. 888, 1989]} and 20 μL of a test compound solution (10^−7 mol/L; a solution of a test compound in DMSO was diluted with Tris-HCl buffer). The resulting mixture was allowed to stand at 25° C. for 120 minutes, followed by rapid suction filtration through a glass fiber paper filter (GF/C; by Whatman). The filter was immediately washed three times with 200 μL of an ice-cooled 50 mmol/L Tris-HCl buffer. The glass fiber paper filter was transferred into a vial, Microscinti (by Perkin Elmer) was added thereto, and the radioactivity level was measured with Topcount (by Perkin Elmer).
The inhibition rate of the test compound to the adenosine A2A receptor binding (^3H-CGS21680 binding) was calculated according to the following formula.
Amount of total binding means the ^3H-CGS21680 binding radioactivity content in the absence of the test compound. Amount of non-specific binding means the ^3H-CGS21680 binding radioactivity content in the presence of 100 μmol/L cyclopentyladenosine (CPA; by Sigma). Amount of binding in the presence of test compound means the ^3H-CGS21680 binding radioactivity content in the presence of 10^−7 mol/L of the test compound.

| Compound | remission of the parkinsonian symptoms (motor disability score before vs after administration) [1] | inhibition at 0.1 µM [2] [%] | melting point [°C] |
| --- | --- | --- | --- |
| O=C(Nc1nc(-c2ccco2)c(-c2ccncc2)s1)c1ccncc1 [Compound 1, N-[4-(2-Furyl)-5-(4-pyridyl)thiazol-2-yl]pyridine-4-carboxamide] | effective for remission of the parkinsonian symptoms | 90 | – |
| O=C(Nc1nc(-c2ccco2)c(C(=O)c2ccccn2)s1)c1ccncc1 [Compound 187, N-[4-(2-Furyl)-5-(pyridin-2-ylcarbonyl)thiazol-2-yl]pyridine-4-carboxamide] | – | 86 | 218 to 227 |
| O=C(Nc1nc(-c2ccco2)c(C(=O)c2ccccn2)s1)c1ccco1 [Compound 234, N-[4-(2-Furyl)-5-(pyridin-2-ylcarbonyl)thiazol-2-yl]furan-2-carboxamide] | – | 100 | 184 to 185 |
